The numbers were not newly measured in patent US8323685B2, “Methods of processing compositions containing microparticles” (Baxter International Inc., priority 2008, dated 2012), which cites them from elsewhere.

The structures appear in SMILES notation.

One data set concerns rats. The conditions noted are these: oral, all at once (acute toxicity), minimal amount reported in the literature.
As to `CC(C)=O` [Acetone], the LD50 was 5.8 g/kg body weight.
With `CCOCC` [ether], the LD50 is recorded as 1.2 g/kg body weight.
In the case of `COCCOC` [dimethoxyethane], the LD50 was 10 g/kg body weight.
As for `CCC(C)=O` [2-butanone (MEK), 2-butanone], the LD50 is 2.7 g/kg body weight.

Tested on in a further data set: not given
The conditions noted are these: ambient temperature such as 20-25° C.
Regarding `CC(C)OC(C)C` [diisopropyl ether], the “Solubility (Sol) of water in the liquid” value is 0.2 g/100 g.
Take `CCOCC` [ether]: the “Solubility (Sol) of water in the liquid” value is reported as 7.5 g/100 g.
